Patent US7632870B2, “Composition based on substituted 1,3-diphenylprop-2-en-1-one derivatives, preparation and uses thereof” (Genfit, priority 2002, dated 2009)

Assays:
LDL = assay: Protection against LDL oxidation by copper (conjugated diene formation); format: biochemical; settings: compound at 10^-4M
Method: LDL oxidation is an important alteration and plays a predominant role in the establishment and development of atherosclerosis (Jurgens, Hoff et al. 1987). […] Unless otherwise indicated, the reagents were from Sigma (St Quentin, France).
LDL were prepared according to the method described by Lebeau et al. (Lebeau, Furman et al. 2000).
The solutions of test compounds were prepared at 10^−2 M concentration in bicarbonate buffer (pH 9) and diluted in PBS to obtain final concentrations ranging from 0.1 to 100 μM for a total ethanol concentration of 1% (V/V).
Prior to oxidation, EDTA was removed from the LDL preparation by dialysis. Oxidation then took place at 30° C. by addition of 100 μl of 16.6 μM CuSO4 solution to 160 μL of LDL (125 μg protein/ml) and 20 μl of a test compound solution. The formation of dienes, the species under observation, was followed by measuring optical density at 234 nm in the samples treated with the compounds but in the presence or absence of copper. Optical density at 234 nm was measured every 10 minutes for 8 hours in a thermostated spectrophotometer (Tecan Ultra 380). The analyses were performed in triplicate. The compounds were considered to have antioxidant activity when they induced a longer lag phase and reduced the rate of oxidation and the amount of dienes formed in comparison with the control sample. […] FIGS. 1, 2 and 3 give an example of the results illustrating the antioxidant properties of compounds 2 and 5.

PPARα = molecular target: T1, PPARα (Homo sapiens, UniProt Q07869); assay: PPARα/Gal4 transactivation system in RK13 cells (luciferase reporter); format: cell-based, rabbit; settings: 24 hours
T1 construct: expressed in transfected cells; host or cells: RK13 cells
T1 sequence (Q07869 239-466 limits assumed): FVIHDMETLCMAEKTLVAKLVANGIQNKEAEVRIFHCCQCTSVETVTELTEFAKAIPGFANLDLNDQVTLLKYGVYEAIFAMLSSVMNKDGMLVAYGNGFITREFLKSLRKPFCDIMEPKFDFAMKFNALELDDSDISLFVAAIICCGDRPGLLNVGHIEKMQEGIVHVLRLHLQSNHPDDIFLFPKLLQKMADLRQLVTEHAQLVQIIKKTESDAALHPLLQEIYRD
Method: RK13 cells were incubated with the different compounds at concentrations of 10, 30 and 100 μM or 1, 10 and 100 μM for 24 hours. The results are expressed as the induction factor (luminescent signal relative to untreated cells) after the different treatments.
PPAR activation was tested in vitro in RK13 fibroblast cell lines by measuring the transcriptional activity of chimeras composed of the DNA binding domain of the yeast gal4 transcription factor and the ligand binding domain of the different PPARs. These latter results were then confirmed in cell lines according to the following protocols:
RK13 cells were from ECACC (Porton Down, UK) and were grown in DMEM medium supplemented with 10% (V/N) fetal calf serum, 100 U/ml penicillin (Gibco, Paisley, UK) and 2 mM L-glutamine (Gibco, Paisley, UK). The culture medium was changed every two days. Cells were kept at 37° C. in a humidified 95% air/5% CO2 atmosphere.
The plasmids pG5TkpGL3, pRL-CMV, pGal4-hPPRAα, pGal4-hPPRAγ and pGal4-φ have been described by Raspe, Madsen et al. (1999). The pGal4-mPPRAα and pGal4-hPPRAγ constructs were obtained by cloning into the pGal4-φ vector of PCR-amplified DNA fragments corresponding to the DEF domains of the human PPARα and PPRAγ nuclear receptors.
[…] At the end of the experiment, the cells were lysed (Gibco, Paisley, UK) and luciferase activity was determined with a Dual-Luciferase™ Reporter Assay System kit (Promega, Madison, Wis., USA) according to the supplier's instructions as previously described (Raspe, Madsen et al. 1999).

[1] = system: Apo E2/E2 transgenic mice; assay: Effects on triglyceride and cholesterol metabolism in vivo
Method: Apo E2/E2 transgenic mice were kept on a 12-hour light/dark cycle at a constant temperature of 20±3° C. After a 1 week acclimation, the mice were weighed and divided into groups of 6 animals selected so that body weight would be uniformly distributed. The test compounds were suspended in carboxymethylcellulose and administered by intragastric gavage at the indicated doses, once a day for 7 or 8 days. Animals had access to food and water ad libitum. At the end of the experiment the animals were weighed and sacrificed under anesthesia. Blood was collected on EDTA. Plasma was prepared by centrifugation at 3000 rpm for 20 minutes. Liver samples were taken and stored frozen in liquid nitrogen for subsequent analysis.
Serum lipid concentrations (total cholesterol and free cholesterol, triglycerides and phospholipids) were determined by a colorimetric assay (Boehringer, Mannheim, Germany) according to the supplier's instructions. Serum concentrations of apolipoproteins AI, AII and CIII were determined as previously described (Raspe et al. J. Lipid Res. 40, 2099-2110, 1999, Asset G et al., Lipids, 34, 39-44, 1999).

In the case of CC(C)(Oc1ccc(C(=O)/C=C/c2cc(C(C)(C)C)c(O)c(C(C)(C)C)c2)c(O)c1)C(=O)O [Compound 2, 1-[2-hydroxy-4-carboxydimethylmethyloxyphenyl]-3-[3.5-ditertbutyl-4-hydroxyphenyl]prop-2-en-1-one], the “lag phase of conjugated diene formation” value (LDL; FIG. 1-1, copper alone 111 minutes) is reported as “more than 480 minutes”, the “rate of conjugated diene formation” value (LDL; FIG. 1-2, copper alone 2) is reported as “not measurable because too low” and the “maximum amount of conjugated dienes formed” value (LDL; FIG. 1-3, copper alone 348) is reported as 54.4 nmol per mg of LDL. For the same compound, the “decrease in conjugated diene formation” value (LDL; FIG. 1-3, versus copper alone) was 84%.
In the case of CC(C)(Oc1ccc(/C=C/C(=O)c2ccccc2O)cc1)C(=O)O [Compound 4, 1-[2-hydroxyhenyl]-3-[4-carboxydimethylmethyloxyphenyl]pron-2-en-1-one], the “Induction factor (luminescent signal relative to untreated cells)” value (PPARα; 10 μM) is reported as 4, the “Induction factor (luminescent signal relative to untreated cells)” value (PPARα; 10 μM, listed as Cp4) is reported as 3.99 and the “Induction factor (luminescent signal relative to untreated cells)” value (PPARα; 30 μM) is reported as 22. The “Induction factor (luminescent signal relative to untreated cells)” value (PPARα; 30 μM, listed as Cp4) was 22.15, the “Induction factor (luminescent signal relative to untreated cells)” value (PPARα; 100 μM) was 60 and the “Induction factor (luminescent signal relative to untreated cells)” value (PPARα; 100 μM, listed as Cp4) was 61.07.
In the case of Cc1cc(/C=C/C(=O)c2ccc(Cl)cc2O)cc(C)c1OC(C)(C)C(=O)O [Compound 7, 1-[2-hydroxy-4-chlorophenyl]-3-[3,5-dimethyl-4-carboxydimethylmethyloxyphenyl]prop-2-en-1-one], the “Induction factor (luminescent signal relative to untreated cells)” value (PPARα; 10 μM) is reported as 36.48, the “Induction factor (luminescent signal relative to untreated cells)” value (PPARα; 30 μM) is reported as 50.37 and the “Induction factor (luminescent signal relative to untreated cells)” value (PPARα; 100 μM, listed as Cp7) is reported as 37.84. The “triglycerides in large sized lipoparticles (exclusion chromatography)” value ([1]; gavage 200 mg/kg for 7 days, FIG. 3-3) was “decreased” and the “cholesterol in large sized lipoparticles (exclusion chromatography)” value ([1]; gavage 200 mg/kg for 7 days, FIG. 3-4) was “decreased”.
CC(C)(Oc1ccc(C(=O)/C=C/c2cc(Br)c(O)c(Br)c2)c(O)c1)C(=O)O [Compound 8, 1-[2-hydroxy-4-carboxydimethylmethyloxyphenyl]-3-[3.5-dibromo-4-hydroxyphenyl]prop-2-en-1-one] was tested, and the “Induction factor (luminescent signal relative to untreated cells)” value (PPARα; 10 μM) was 0.62, the “Induction factor (luminescent signal relative to untreated cells)” value (PPARα; 30 μM) was 1.27 and the “Induction factor (luminescent signal relative to untreated cells)” value (PPARα; 100 μM) was 10. The “Induction factor (luminescent signal relative to untreated cells)” value (PPARα; 100 μM, listed as Cp8) was 9.98.
Cc1cc(/C=C/C(=O)c2ccccc2O)cc(C)c1OC(C)(C)C(=O)O [Compound 11, 1-[2-hydroxyphenyl]-3-[3,5-dimethyl-4-carboxydimethylmethyloxyphenyl]prop-2-en-1-one] was tested, and the “Induction factor (luminescent signal relative to untreated cells)” value (PPARα; 1 μM) was 1.20, the “Induction factor (luminescent signal relative to untreated cells)” value (PPARα; 10 μM) was 1.39 and the “Induction factor (luminescent signal relative to untreated cells)” value (PPARα; 100 μM, listed as Cp11) was 10.19.
CC(C)(Oc1ccc(C(=O)/C=C/c2ccc(Cl)cc2)c(O)c1)C(=O)O [Compound 18, 1-[2-hydroxy-4-carboxydimethylmethyloxyphenyl]-3-[4-chlorophenyil] prop-2-en-1-one] was tested, and the “lag phase of conjugated diene formation” value (LDL; FIG. 1-4, copper alone 178 minutes) was 241 min, the “rate of conjugated diene formation” value (LDL; FIG. 1-5, copper alone 1.6) was 1.4 nmol/min/mg of LDL and the “maximum amount of conjugated dienes formed” value (LDL; FIG. 1-6, copper alone 353) was 305 nmol per mg of LDL.
In the case of Cc1cc(/C=C/C(=O)c2ccc(Br)cc2O)cc(C)c1OC(C)(C)C(=O)O [Compound 25, 1-[2-hydroxy-4-bromophenyl]-3-[3,5-dimethyl-4-carboxydimethylmethyloxyphenyl]prop-2-en-1-one], the “Induction factor (luminescent signal relative to untreated cells)” value (PPARα; 1 μM) is reported as 13.48, the “Induction factor (luminescent signal relative to untreated cells)” value (PPARα; 10 μM) is reported as 21.03 and the “Induction factor (luminescent signal relative to untreated cells)” value (PPARα; 100 μM) is reported as 7.01.
With COc1ccccc1C(=O)/C=C/c1cc(C)c(OC(C)(C)C(=O)O)c(C)c1 [Compound 31, 1-[2-methoxyphenyl]-3-[3,5-dimethyl-4-carboxydimethylmethyloxyphenyl]prop-2-en-1-one] the “Induction factor (luminescent signal relative to untreated cells)” value (PPARα; 1 μM) was 3.77 and the “Induction factor (luminescent signal relative to untreated cells)” value (PPARα; 100 μM) was 1.21.
With COc1cc(Cl)ccc1C(=O)/C=C/c1cc(C)c(OC(C)(C)C(=O)O)c(C)c1 [Compound 37, 1-[2-methyloxy-4-chlorophenyl]-3-[3,5-dimethyl-4-carboxydimethylmethyloxyphenyl]prop-2-en-1-one] the “Induction factor (luminescent signal relative to untreated cells)” value (PPARα; 1 μM) was 24.55, the “Induction factor (luminescent signal relative to untreated cells)” value (PPARα; 10 μM) was 27 and the “Induction factor (luminescent signal relative to untreated cells)” value (PPARα; 10 μM, listed as Cp37) was 27.83. The “Induction factor (luminescent signal relative to untreated cells)” value (PPARα; 100 μM) was 0.02.
With CCCCCCCc1ccc(C(=O)/C=C/c2cc(C)c(OC(C)(C)C(=O)OC(C)(C)C)c(C)c2)cc1 [Compound 38, 1-[4-heptylphenyl]-3-[3,5-dimethyl-4-tertbutyloxycarbonyldimethylmethyloxyphenyl]prop-2-en-1-one] the “Induction factor (luminescent signal relative to untreated cells)” value (PPARα; 1 μM) was 14.70, the “Induction factor (luminescent signal relative to untreated cells)” value (PPARα; 10 μM) was 22 and the “Induction factor (luminescent signal relative to untreated cells)” value (PPARα; 10 μM, listed as Cp38) was 22.22. For the same compound, the “Induction factor (luminescent signal relative to untreated cells)” value (PPARα; 100 μM) was 0.311.
With Cc1cc(/C=C/C(=O)c2ccc(Br)cc2)cc(C)c1OC(C)(C)C(=O)O [Compound 41, 1-[4-bromophenyl]-3-[3,5-dimethyl-4-carboxydimethylmethyloxyphenyl]prop-2-en-1-one] the “Induction factor (luminescent signal relative to untreated cells)” value (PPARα; 1 μM) was 34.61, the “Induction factor (luminescent signal relative to untreated cells)” value (PPARα; 10 μM) was 31 and the “Induction factor (luminescent signal relative to untreated cells)” value (PPARα; 10 μM, listed as Cp41) was 31.18. The “Induction factor (luminescent signal relative to untreated cells)” value (PPARα; 100 μM) was 3.39, the “triglycerides in large sized lipoparticles (exclusion chromatography)” value ([1]; 50 mg/kg/day for 8 days, FIG. 3-11) was “decrease” and the “cholesterol in large sized lipoparticles (exclusion chromatography)” value ([1]; 50 mg/kg/day for 8 days, FIG. 3-12) was “decrease”.
